According to ChEMBL document CHEMBL1149564, “Synthesis and bioevaluation of N-(arylalkyl)-homospermidine conjugates” (Bioorg Med Chem Lett, 2007):

Assays:
B16 [1] = experiment: Cell cycle arrest in B16 cells by accumulation at S phase at 1 uM after 24 hrs; type: functional, Mus musculus
B16 [2] = experiment: Induction of apoptosis in B16 cells at 1 uM after 24 hrs; type: functional, Mus musculus
B16 [3] = experiment: Cell cycle arrest in B16 cells by accumulation at S phase at 0.1 uM after 24 hrs; type: functional, Mus musculus
B16 [4] = experiment: Cell cycle arrest in B16 cells by accumulation at G2 phase at 1 uM after 24 hrs; type: functional, Mus musculus
B16 [5] = experiment: Ratio of IC50 for mouse B16 cells in presence of SPD to IC50 for mouse B16 cells; type: functional
L1210 [6] = experiment: Cytotoxicity against mouse L1210 cells by MTT assay; type: functional, cell-based
B16 [7] = experiment: Cell cycle arrest in B16 cells by accumulation at G1 phase at 1 uM after 24 hrs; type: functional, Mus musculus
B16 [8] = experiment: Cell cycle arrest in B16 cells by accumulation at G1 phase at 0.1 uM after 24 hrs; type: functional, Mus musculus
L1210 [9] = experiment: Ratio of IC50 for mouse L1210 cells to IC50 for mouse L1210 cells in presence of […]; type: functional
B16 [10] = experiment: Cytotoxicity against mouse B16 cells by MTT assay; type: functional, cell-based
HeLa = experiment: Cytotoxicity against human HeLa cells by MTT assay; type: functional, cell-based
B16 [11] = experiment: Induction of apoptosis in B16 cells at 0.1 uM after 24 hrs; type: functional, Mus musculus
B16 [12] = experiment: Cell cycle arrest in B16 cells by accumulation at G2 phase at 0.1 uM after 24 hrs; type: functional, Mus musculus
FL5.12 [13] = experiment: Induction of apoptosis in BALB/c mouse FL5.12A pro-B cells in the presence of 2 ng/mL IL3; type: functional
FL5.12 [14] = experiment: Induction of apoptosis in BALB/c mouse FL5.12A pro-B cells; type: functional
FL5.12 [15] = experiment: Induction of apoptosis in BALB/c mouse FL5.12A pro-B cells in the presence of 0.1 ng/mL IL3; type: functional

SMILES | Ratio IC50 (B16 [5]) | IC50 (L1210 [6]) [µM] | Ratio IC50 (L1210 [9]) | IC50 (B16 [10]) [µM] | IC50 (HeLa) [µM] | also measured
Cl.NCCCCNCCCCNCc1ccc(-c2ccccc2)cc1 | 2.4 | 9.98 | 2.05 | 1.22 | 3.61 | Activity (B16 [1]): 68.83%; Activity (B16 [2]): 42.47%; Activity (B16 [3]): 40.37%; Activity (B16 [4]): 0.04%; Activity (B16 [7]): 39.13%; Activity (B16 [8]): 49.18%; Activity (B16 [11]): 17.35%; Activity (B16 [12]): 10.45%
Cl.NCCCCNCCCCNCc1cccc2ccccc12 | 2.5 | 8.04 | 1.58 | 2.33 | 1.38 | 
Cl.c1ccc2cc(CNCCCCNCCCCN3CCNCC3)ccc2c1 | 9 | 35.8 | 1.53 | 2.89 | 3.7 | 
Cl.c1ccc2c(CNCCCCNCCCCN3CCNCC3)cccc2c1 | 2.3 | > 50 | >1 | 5.46 | 3.6 | 
CCCCNCc1ccc(-c2ccccc2)cc1 |  |  |  | 10.8 | 10.9 | 
Cl.c1ccc2c(CNCCCCNCCCCN3CCNCC3)c3ccccc3cc2c1 | 2 | > 50 | >2.5 | 6.07 | 9.58 | 
CCCCNCc1ccc2cc(OC)ccc2c1 |  |  |  | 15 | 12.5 | 
Cl.NCCCCNCCCCNCC1CCCc2ccccc21 (stereo not given) | 1.7 | 14.8 | 1.63 | 6.96 |  | 
Cl.NCCCCNCCCCNCc1ccc2ccccc2c1 | 3.8 | 16.9 | 2.08 | 1.66 | 1.9 | 
Cl.c1ccc(-c2ccc(CNCCCCNCCCCN3CCNCC3)cc2)cc1 |  | 20.3 | 2.71 | > 50 | 26.8 | 
COc1ccc2cc(CNCCCCNCCCCN)ccc2c1.Cl | 3.6 | 15.1 | 2.69 | 4.88 | 1.2 | 
COc1ccc2cc(CNCCCCNCCCCN3CCNCC3)ccc2c1.Cl |  | 15.1 | 1.76 | > 50 | 11.3 | 
Cl.NCCCCNCCCCNCc1c2ccccc2cc2ccccc12 | 6.6 | 4.8 | 1.33 | 0.31 | 1.1 | Activity (B16 [1]): 10.1%; Activity (B16 [2]): 37.26%; Activity (B16 [3]): 11.29%; Activity (B16 [4]): 10.1%; Activity (B16 [7]): 80.19%; Activity (B16 [8]): 77.99%; Activity (B16 [11]): 12.49%; Activity (B16 [12]): 10.72%
N=C(N)NN [PIMAGEDINE] |  |  |  |  |  | Activity (FL5.12 [13]): 5%; Activity (FL5.12 [14]): 80%; Activity (FL5.12 [15]): 3%
